“Also recorded” adds a separate entry of the source.
Columns and labels:
[1] = tested on: Wnt5a binding to FZD1 CRD, FZD2 CRD, and FZD7 CRD; experiment: ELISA of biotinylated Wnt5a binding to FZD CRD-Fc
Description: 384-well Maxisorp plates (cat. no. 464718; Thermo Scientific) were incubated with 30 μL of Neutravidin (cat. no. 31000, Thermo Scientific; 2 μg/mL in PBS) overnight at 4° C. Plates were then washed with PBST and blocked with PBS/1% BSA for 1 hour at RT and then washed with PBST prior to further processing. The binding assay was conducted in 96 well plates (cat no. 83007-374; VWR) which were blocked with PBS/1% BSA overnight at 4° C. hFZD4 CRD-Fc or hFZD7 CRD-Fc (63 ng/mL) were incubated with either Bio-Wnt3a (25 ng/mL) or Bio-Wnt5a (50 ng/mL) in the presence of 4-fold serial dilutions of the indicated peptide in PBS overnight at 4° C. All assays included hFZD9 CRD-mIgG2A protein as a negative control. hFZD7 CRD-His was suspended in 150 mM NaCl, 50 mM Tris-HCl at pH 7.5 and when used in assays an equal volume of the same buffer control was used. The binding assay mixtures were transferred to the Neutravidin coated plates and incubated for ˜1 h at RT. The wells were then washed with PBST, incubated with anti-hIgG1-HRP (1:10,000 suspended in PBS supplemented with 1% BSA; cat. no. A18817, Invitrogen), and washed again with PBST. The signal was developed with the addition of TMB reagent (following the manufacturer's recommendation; KPL; 50-76-00) for 15 min prior to the addition of an equal volume of 1 M phosphoric acid for 10 min Absorbance was measured at 450 nm using a Tekan M1000 plate reader. Values were collected and plotted using Prism Graphpad software. All assay conditions using peptides were at 1% DMSO final concentration. […]
Briefly, the assays were performed using (a) FZD1 CRD-Fc, (b) FZD2 CRD-Fc, (c) FZD4 CRD-Fc, or (d) FZD7 CRD-Fc as the capture reagent and biotinylated-Wnt5a as the detection reagent. […] Streptavidin-HRP was used to detect biotinylated Wnt5a, and HRP activity was measured as a function of chemiluminescence detection at 428 nm. […]

[2] = target: T1, Wnt3a binding to FZD4 CRD (Homo sapiens, UniProt Q9ULV1); experiment: ELISA of biotinylated Wnt3a binding to FZD CRD-Fc; settings: peptide 0-10 μM
T1 construct: hFZD4 CRD-Fc (cat no. 5847-FZ); purchased R&D systems 5847-FZ
T1 sequence (Q9ULV1 40-161 limits assumed): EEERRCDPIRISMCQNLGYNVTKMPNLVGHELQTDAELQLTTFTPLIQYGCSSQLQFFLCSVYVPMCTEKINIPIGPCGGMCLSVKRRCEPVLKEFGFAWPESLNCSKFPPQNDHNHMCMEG
Description: 384-well Maxisorp plates (cat. no. 464718; Thermo Scientific) were incubated with 30 μL of Neutravidin (cat. no. 31000, Thermo Scientific; 2 μg/mL in PBS) overnight at 4° C. Plates were then washed with PBST and blocked with PBS/1% BSA for 1 hour at RT and then washed with PBST prior to further processing. The binding assay was conducted in 96 well plates (cat no. 83007-374; VWR) which were blocked with PBS/1% BSA overnight at 4° C. hFZD4 CRD-Fc or hFZD7 CRD-Fc (63 ng/mL) were incubated with either Bio-Wnt3a (25 ng/mL) or Bio-Wnt5a (50 ng/mL) in the presence of 4-fold serial dilutions of the indicated peptide in PBS overnight at 4° C. All assays included hFZD9 CRD-mIgG2A protein as a negative control. hFZD7 CRD-His was suspended in 150 mM NaCl, 50 mM Tris-HCl at pH 7.5 and when used in assays an equal volume of the same buffer control was used. The binding assay mixtures were transferred to the Neutravidin coated plates and incubated for ˜1 h at RT. The wells were then washed with PBST, incubated with anti-hIgG1-HRP (1:10,000 suspended in PBS supplemented with 1% BSA; cat. no. A18817, Invitrogen), and washed again with PBST. The signal was developed with the addition of TMB reagent (following the manufacturer's recommendation; KPL; 50-76-00) for 15 min prior to the addition of an equal volume of 1 M phosphoric acid for 10 min Absorbance was measured at 450 nm using a Tekan M1000 plate reader. Values were collected and plotted using Prism Graphpad software. All assay conditions using peptides were at 1% DMSO final concentration.
Without being bound be theory, the substantial conformational change induced by dFz7-21 on hFZD7 CRD, as exemplified by the altered geometry of the lipid binding cavity, may facilitate the accommodation of two Wnt molecules simultaneously onto the hFZD7 CRD dimer (FIG. 4e-h).
Similar results were observed using Wnt3a. […] Binding of Wnt3a to FZD1 CRD, FZD2 CRD, and FZD7 CRD increased in the presence of dFz7-21 at concentrations below about 0.5 μM (FIG. 22E), with the most binding seen in the presence of 0.01 μM-0.05 μM dFz7-21. […] Fz7-21S had no effect on Binding of Wnt3a to any of the FZD CRDs tested (FIG. 22F).

Sequence: LPSDDLEFWSHVMY [Fz7-21S, negative control]
- effect on Wnt5a binding to FZD1, FZD2 and FZD7 CRD ([1]; peptide 0-10 μM): showed no effect
- effect on Wnt3a binding to FZD4 CRD [2]: showed no effect

Sequence: LPSDDLEFWCHVMY [dFz7-21]
- peptide concentration with the most Wnt5a binding ([1]; FIGS. 22A, 22B): 0.05 µM
- effect on Wnt3a binding to FZD4 CRD [2]: did not show any effect; also recorded: Neither Fz7-21 nor dFz7-21 had any effect

— US20190359653A1, “SELECTIVE PEPTIDE INHIBITORS OF FRIZZLED” (Genentech, Inc., priority 2016, published 2019)
